Patent US20100111965A1, “COMBINATION THERAPY” (FUSION ANTIBODIES LIMITED, priority 2006, published 2010)

Experiments:
Assay type in all cases: cell-based, human
HCT116 cells = assay: FACS analysis of cell surface AREG in HCT116 with or without irinotecan; settings: 2.5 μM for 48 hours; HCT116 and H460 analysed, cell line not given
Method: Following treatment cells were stained with AREG monoclonal antibodies and analysed by FACS
After 48 hours cells were washed in PBS and blocked for 20 minutes in Normal Goat Serum. 5×10^5 cells were incubated with AREG antibodies or isotype control for 2 hours and washed in PBS-T. The cells were incubated with a FITC conjugated goat anti-mouse antibody for 1 hour and washed in PBS-T before analysis on BD FACS canto.

HCT116 +/+ = assay: Western blot of AREG protein in HCT116 lysates after chemotherapy; settings: HCT116 p53 wild type lysates; 48 hour treatment
Method: FIG. 2 illustrates western blot analysis of AREG and gamma tubulin protein expression in HCT116 +/+ and RKO +/+ with/without a 48 hour CPT11 or 5-Fu treatment; HCT 116, RKO, HT 29 and H630 are human colorectal carcinoma cell lines. After different time exposure to chemotherapy the cells were harvested, and washed in 1×PBS. The cell pellet was then lysed in a suitable amount of 1×RIPA lysis buffer (150 mM NaCl, 10 mM Tris at pH 7.2, 0.1% SDS, 1.0% triton X-100 and 5 mM.EDTA) supplemented with protease inhibitors. The cell lysate was briefly vortexed, incubated on ice for 10 min and then centrifuged at 12,000 rpm to remove cell debris. Following centrifugation, the lysate supernatant was removed to a fresh eppendorf tube. Protein concentrations were assayed using the BCA Protein Assay (Pierce) according to the manufacturer's instructions. The absorbance of each sample at 620 nm was assayed using a microplate reader. A standard BSA curve was plotted for each experiment and the protein concentration of each sample calculated. To each sample an equal volume of 5× Western sample buffer and 10% of the final volume of β-mercaptoethanol (Sigma) was added. The samples were denatured at 95° C. for 5 minutes and placed on ice prior to loading onto SDS polyacrylamide gel (SDS PAGE). […] Protein bands were detected by exposure to autoradiograph which was subsequently developed. […]

[1] = tested on: HT29 colorectal cancer cells; assay: RT-PCR of AREG mRNA in HT29 cells after chemotherapy; settings: IC50 dose, 48 hours
Method: FIG. 6 illustrates AREG upregulation following chemotherapeutic challenge in A) HT29, B) HCT116 and C) MDA-MB231 cells. Cells were treated with/without chemotherapy for 48 hours. RT-PCR was performed with 1 μg of total RNA using primer pairs specific for the human AREG gene or GAPDH. The PCR products were separated on 1.5% agarose gel electrophoresis and visualized by ethidium bromide staining.
For Example 2, Total RNA was isolated from cells following the RNA STAT-60 manufacturer's protocol (Biogenesis, Poole, U.K.). RT-PCR was performed with 1 μg of total cell RNA using a Promega ImProm-II™ Reverse Transcription System (Promega, Southhampton, UK). PCR was performed using primer pairs specific for human AREG (Forward 5′-[…]-3′(SEQ ID No:19), Reverse 5′-[…]-3′ (SEQ ID No:20)), human HB-EGF (Forward 5′-[…]-3′(SEQ ID No:21), Reverse 5′-[…]-3′(SEQ ID No:22)), human GAPDH as a control (Forward 5′[…]-3′(SEQ ID No:23), Reverse 5′ […]-3′(SEQ ID NO:24)) and human Beta-actin as a control (Forward 5′-[…]-3′(SEQ ID No:25), Reverse 5′-[…]-3′(SEQ ID No:26)).
The PCR products were separated on 1.5% agarose gel and visualized by ethidium bromide staining.

CCc1c2c(nc3ccc(OC(=O)N4CCC(N5CCCCC5)CC4)cc13)-c1cc3c(c(=O)n1C2)COC(=O)[C@]3(O)CC [CPT-11, irinotecan]
increase in the cell surface expression of AREG (FACS) (HCT116 cells): ≤ 40%
AREG protein expression (western blot) (HCT116 +/+): Enhanced AREG expression
AREG mRNA expression (RT-PCR) [1]: up-regulation
